Entries after “also recorded” stand apart in the source; their conditions may differ.
Tests used:
MAO-B [1] = target: T1, MAO-B (Homo sapiens, UniProt P27338); test: Autoradiography with [^18F]rasagiline on human brain sections, blocking with excess inhibitor; format: binding
T1 construct: Autoradiography using [^18F]rasagiline on human brain slices from a healthy subject; from tissue; host or cells: human brain hemisphere cryosections (100 µm)
T1 sequence (P27338 1-520): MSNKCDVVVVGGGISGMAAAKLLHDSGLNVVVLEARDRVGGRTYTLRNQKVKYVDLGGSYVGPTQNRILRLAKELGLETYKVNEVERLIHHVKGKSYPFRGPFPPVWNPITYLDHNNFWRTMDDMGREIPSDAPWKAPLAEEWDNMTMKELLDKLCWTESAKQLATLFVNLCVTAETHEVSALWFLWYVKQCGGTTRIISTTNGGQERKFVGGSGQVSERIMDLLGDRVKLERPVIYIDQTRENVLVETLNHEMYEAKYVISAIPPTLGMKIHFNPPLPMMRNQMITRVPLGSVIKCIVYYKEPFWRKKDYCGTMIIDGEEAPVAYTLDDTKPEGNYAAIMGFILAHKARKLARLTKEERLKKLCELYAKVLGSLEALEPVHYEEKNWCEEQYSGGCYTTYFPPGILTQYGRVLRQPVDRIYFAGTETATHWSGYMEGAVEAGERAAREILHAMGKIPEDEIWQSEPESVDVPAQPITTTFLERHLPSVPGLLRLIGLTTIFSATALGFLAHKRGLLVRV
Experimental: Binding of the [^18F]rasagiline (compound of formula F) was investigated on human brain sections from normal subjects using a standard protocol.
In brief, whole brain hemispheres were cut at a 100 μm thickness in a Cryocut (Leica, Germany), thaw mounted onto gelatine glass slides and kept at −25° C. before use. Thereafter, the slides containing the regions of interest (e.g. hippocampus, thalamus) were removed and brought to room temperature. The sections were incubated with 0.2 MBq/mL [^18F] compound F in 50 mM TRIS/0.1% BSA (pH 7.4) with salts (120 mM NaCl, 5 mM KCl, 1 mM CaCl2, 1 mM MgCl2) for 90 min at room temperature and washed three times for 5 min each in 50 mM TRIS (pH 7.4). The sections were dipped once into ice cold distilled water, dried at room temperature and exposed to PhosphorImager plates (FUJI BAS 5000) overnight.

MAO-B [2] = test: PET brain time activity curves (SUV) in cynomolgus monkeys; format: in vivo, cynomolgus monkey
Experimental: One monkey weighing 6.3 kg was injected i.v. with 163 MBq [^18F]rasagiline (compound F) under sevofluorane anaesthesia.
Two cynomolgus monkeys weighting 5.25 and 6.2 kg, respectively were investigated. They were injected i.v. under sevofluorane anaesthesia with 168 MBq and 174 MBq [^18F],(^2H2)rasagiline (1), respectively.

[3] = Blood radioactivity / metabolite profile by radio-HPLC after tracer injection; format: in vivo, cynomolgus monkey; settings: for number of ^18F labelled metabolites detected: plasma, radio-HPLC, over the time of the investigation
From the text: In addition, the blood radioactivity profiles have been monitored over time using radio-HPLC measurements and were decay corrected (d.c.) (FIGS. 4 and 5).

[4] = pre-treated with 0.5 mg/kg (L)-deprenyl

| blocking of the [^18F]rasagiline (compound F) autoradiography signal (MAO-B [1]; excess (10 μM) of the inhibitor in the incubation solution) | initial brain uptake, striatal (caudate and putamen) and thalamic ROI (MAO-B [2]; i.v., PET) | initial brain uptake, whole brain (MAO-B [2]; i.v., PET) | increase of whole brain signal over time (MAO-B [2]; until the end of the observation time) | whole brain level after slight elimination (MAO-B [2]; within 15 minutes) | number of ^18F labelled metabolites detected [3] | specificity of the ligand (MAO-B [1]; conclusion from blocking experiments) | autoradiography signal in brain regions with known MAO-B activity (MAO-B [1]; human brain slices, healthy subject, globus pallidus, putamen, caudate, thalamus, hippocampus, 0.2 MBq/mL, 90 min) | SMILES | initial uptake in whole brain relative to [^18F]rasagiline (compound F) (MAO-B [2]; i.v., PET) | decrease in uptake after deprenyl pre-treatment, Cerebellum (MAO-B [2]; [4]) [%] | decrease in uptake after deprenyl pre-treatment, Striatum (MAO-B [2]; [4]) [%] | decrease in uptake after deprenyl pre-treatment, Thalamus (MAO-B [2]; [4]) [%] | decrease in uptake after deprenyl pre-treatment, cortex (MAO-B [2]; [4]) [%] | brain elimination behaviour after initial uptake (MAO-B [2]; whole brain TAC) | metabolite corrected blood radioactivity time curve compared to the non-deuterated compound ([3]; decay corrected) |
| --- | --- | --- | --- | --- | --- | --- | --- | --- | --- | --- | --- | --- | --- | --- | --- |
| completely blocked | – | – | – | – | – | – | – | C#CCN[C@@H]1CCc2ccccc21 [rasagiline] | – | – | – | – | – | – | – |
| – | ca. 400 % SUV | ca. 280 % SUV | about 35 % SUV | ca. 225 % SUV | eight | specifically interacting with MAO-B | high signal intensity | C#CCN[C@H]1c2ccccc2C[C@@H]1[18F] [compound F, reference compound] | – | – | – | – | – | – | – |
| – | – | – | – | – | two | – | – | [2H]C([2H])(C#C)N[C@H]1c2ccccc2C[C@@H]1[18F] [compound 1, (1S,2S)-2-[^18F]fluoro-N-[(1,1-^2H2)prop-2-yn-1-yl]indan-1-amine] | comparable to that of [^18F]rasagiline (compound F) | 46 | 45 | 47 | 40 | eliminated in a manner resembling that of a reversible ligand | slower elimination; also recorded: increased blood radioactivity over time |
